What all share (assay): NCI tumour cell line growth inhibition, 48 h
For experiment [1], the system named is 786-0.
Experiment [2] deals with HCT-116.
In experiment [3] the test system is HL-60.
For experiment [4], the system named is HT-29.
In experiment [5] the test system is KM12.
In experiment [6] the test system is MCF7.
Experiment [7] relates to MDA-MB-231.
The subject of experiment [8] is MDA-MB-435.
The test system of experiment [9] is MDA-N.
The test system of experiment [10] is NCI-H522.
The subject of experiment [11] is OVCAR-8.
Experiment [12] concerns PC-3.
Experiment [13] concerns SF-268.
Experiment [14] concerns SK-MEL-28.
Experiment [15] deals with SK-MEL-2.
In experiment [16] the test system is SK-MEL-5.
In experiment [17] the test system is T47D.
For experiment [18], the system named is UACC-62.
Experiment [19] concerns CCRF-CEM.
In experiment [20] the test system is RPMI-8226.

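How tested: cells in 96-well plates exposed to compound for 48 hours at five concentrations. The concentration for 50% growth inhibition is given as GI50.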 Active and inactive are the calls of the source. No stated cut-off is given here; in the data, active = GI50 up to about 1.1 µM and inactive = higher. Square brackets hold non-standard residues; d marks the D form. Peptide text beside a SMILES is read from it. pGlu = O=C1CC[CH](C(=O)O)N1

On to `O=C(CCC=C(S(=O)(=O)c1ccccc1)S(=O)(=O)c1ccccc1)c1ccccc1`, for which the GI50 in experiment [1] was 3.21 µM (inactive); in experiment [2] it was 3.42 µM (inactive); in [3], 1.86 µM (inactive); in experiment [4], 4.91 µM (inactive); in experiment [5], 10.9 µM (inactive); in experiment [6], 4.47 µM (inactive). Moreover, the GI50 in [7] was 8.04 µM (inactive); in experiment [8], 5.25 µM (inactive); in [9], 3.69 µM (inactive); in experiment [10] it was 2.76 µM (inactive); in experiment [11] it was 4.58 µM (inactive); in experiment [12] it was 3.64 µM (inactive). The GI50 in experiment [13] was 4.59 µM (inactive); in experiment [14], 12.1 µM (inactive); in experiment [15], 2.38 µM (inactive); in experiment [16] it was 6.97 µM (inactive); in experiment [17], 5.43 µM (inactive); in [18], 6.92 µM (inactive).
Consider `Cc1cc(S(=O)(=O)Nc2nc(N)n[nH]2)c(Cl)cc1Cl`, for which the GI50 in experiment [1], in [19], in [2], in experiment [3], in [4] and in experiment [5] was > 10 µM (inactive) each time. Moreover, the GI50 in [7], in experiment [8], in experiment [9], in [10], in experiment [11] and in [12] was > 10 µM (inactive) each time. In addition, the GI50 in experiment [20], in experiment [13], in [14], in [15], in [16] and in [17] was > 10 µM (inactive) in each case. Further, the GI50 in [18] was > 10 µM (inactive).
`COP(=O)(OC)C(Nc1ccc(Cc2ccc(NC(c3ccco3)P(=O)(OC)OC)cc2)cc1)c1ccco1` (stereo not given): the GI50 in [1] is 13.8 µM (inactive); in experiment [19] it was > 100 µM (inactive); in experiment [2] it was 35.9 µM (inactive); in experiment [3] it was > 100 µM (inactive); in experiment [4] it was > 100 µM (inactive); in experiment [5], > 100 µM (inactive). Besides, the GI50 in [6] is > 100 µM (inactive); in [7] it was 15.9 µM (inactive); in experiment [8], > 100 µM (inactive); in experiment [9], > 100 µM (inactive); in experiment [10], 28.3 µM (inactive); in [11], 65.5 µM (inactive). Also, the GI50 was 52.7 µM (inactive) in experiment [12]; 15.4 µM (inactive) in experiment [13]; > 100 µM (inactive) in experiment [14]; 14 µM (inactive) in experiment [15]; > 100 µM (inactive) in experiment [16]; 67.1 µM (inactive) in [17]. In addition, the GI50 in [18] was 17 µM (inactive).
For the molecule `CN(C)CCN(C)c1ccc2c(=O)n(CCN(C)C)c(=O)n3c4ccccc4c(=O)c1c23`, the GI50 in experiment [1] was 0.108 µM (active); in experiment [19], < 0.0258 µM (active); in [2], 0.194 µM (active); in experiment [3] it was 0.0627 µM (active); in [4] it was 0.397 µM (active); in experiment [5] it was 1.26 µM (inactive). Further, the GI50 in experiment [6] was 0.345 µM (active); in [8], 1.26 µM (inactive); in experiment [9] it was 0.859 µM (active); in experiment [10], 0.259 µM (active); in [11], 0.582 µM (active); in experiment [12] it was 0.973 µM (active). The GI50 in experiment [20] is 0.179 µM (active); in experiment [14] it was 2.12 µM (inactive); in experiment [15], 2.87 µM (inactive); in experiment [16], 0.48 µM (active); in experiment [17], 1.09 µM (active); in experiment [18], 0.993 µM (active).
Consider `CO/C(N)=C(C#N)/N=C/c1cccnc1`, for which the GI50 is > 100 µM (inactive) in experiment [1]; 35.8 µM (inactive) in experiment [19]; > 100 µM (inactive) in experiment [2]; > 100 µM (inactive) in experiment [3]; > 100 µM (inactive) in experiment [4]; > 100 µM (inactive) in experiment [5]. Besides, the GI50 in experiment [6], in experiment [7], in experiment [8], in experiment [9], in experiment [11] and in [12] was > 100 µM (inactive) each time. The GI50 in [20], in [13], in experiment [14], in experiment [15], in experiment [16] and in experiment [17] was > 100 µM (inactive) each time. In addition, the GI50 in [18] is > 100 µM (inactive).
Take `CC(NC(=O)C(Cc1c[nH]cn1)NC(=O)C1CCC(=O)N1)C(N)=O` (stereo not drawn) ([pGlu]-His-Ala-NH2; configuration not given here): the GI50 in experiment [1], in [19], in [2], in experiment [3], in experiment [4] and in experiment [5] was > 100 µM (inactive) each time. Besides, the GI50 in experiment [6], in [7], in experiment [8], in experiment [9], in experiment [11] and in experiment [12] was > 100 µM (inactive) throughout. Besides, the GI50 in experiment [20], in experiment [13], in experiment [14], in experiment [16], in experiment [17] and in experiment [18] was > 100 µM (inactive) in each case.
For the molecule `O=C1CSCc2sccc21`, the GI50 in experiment [1], in experiment [19], in experiment [2], in experiment [3], in [4] and in experiment [5] was > 100 µM (inactive) in each case. Besides, the GI50 in [6], in experiment [7], in [9], in experiment [10], in experiment [11] and in experiment [12] was > 100 µM (inactive) each time. Also, the GI50 in experiment [13], in [14], in experiment [15], in [16], in experiment [17] and in experiment [18] was > 100 µM (inactive) in each case.
Regarding `COC(=O)[C@@H](NC(=O)N(Cc1ccccc1)C[C@H](CC(C)C)NC(=O)[C@@H](NC(=O)OC(C)(C)C)C(C)C)C(C)C`, the GI50 in experiment [1], in experiment [2], in experiment [3], in [4], in [5] and in experiment [7] was > 100 µM (inactive) throughout. Besides, the GI50 in experiment [8], in experiment [9], in experiment [10], in experiment [11], in experiment [12] and in experiment [20] was > 100 µM (inactive) in each case. Further, the GI50 in experiment [13], in experiment [14], in [15], in experiment [16], in experiment [17] and in experiment [18] was > 100 µM (inactive) each time.
Regarding `CCC(Cc1cnc2nc(N)nc(N)c2n1)c1ccc(C(=O)NC(CCC(=O)O)C(=O)O)cc1` (stereo not given), the GI50 in experiment [1] is 0.000146 µM (active); in [19], < 0.0001 µM (active); in experiment [2], < 0.0001 µM (active); in [3], < 0.0001 µM (active); in [4] it was 0.000327 µM (active); in experiment [5] it was 0.00069 µM (active). The GI50 in experiment [6] is 0.0628 µM (active); in [8] it was 0.000736 µM (active); in experiment [9], 0.000575 µM (active); in experiment [10], 0.01 µM (active); in experiment [11], 0.000624 µM (active); in [12] it was < 0.0001 µM (active). Besides, the GI50 in [13] was 0.00075 µM (active); in experiment [16], 0.00539 µM (active); in experiment [17], 1.78 µM (inactive); in experiment [18], 0.000396 µM (active).
As for `COc1ccc(NC(=S)C#N)cc1`, the GI50 in experiment [1] was > 100 µM (inactive); in experiment [19], 54.1 µM (inactive); in [2], > 100 µM (inactive); in experiment [3], 53 µM (inactive); in [4], > 100 µM (inactive); in [5], > 100 µM (inactive). Also, the GI50 in experiment [6], in [7], in [8], in [9], in [11] and in experiment [12] was > 100 µM (inactive) throughout. For the same molecule, the GI50 in [20] was 38.7 µM (inactive); in experiment [13], > 100 µM (inactive); in experiment [14], > 100 µM (inactive); in experiment [15], > 100 µM (inactive); in experiment [16] it was > 100 µM (inactive); in [17], 85.7 µM (inactive). Further, the GI50 in experiment [18] is > 100 µM (inactive).
In the case of `Brc1ccc(-c2ccc(-c3ccc(Br)s3)s2)s1`, the GI50 in experiment [1], in experiment [19], in experiment [2], in experiment [3], in experiment [4] and in [5] was > 100 µM (inactive) in each case. The GI50 in experiment [6], in experiment [8], in [9], in [11], in [12] and in experiment [20] was > 100 µM (inactive) throughout. Also, the GI50 in experiment [13], in experiment [14], in experiment [15], in [16], in experiment [17] and in experiment [18] was > 100 µM (inactive) in each case.
